Earlier results as cited in patent US11167065B2 (EUROCOR TECH GMBH, priority 2009, dated 2021).
Like-named read-outs stand apart in the source and are kept apart here.

CC(=O)O[C@H]1C(=O)[C@@]2(C)[C@H]([C@H](OC(=O)c3ccccc3)[C@]3(O)C[C@H](OC(=O)[C@H](O)[C@@H](NC(=O)c4ccccc4)c4ccccc4)C(C)=C1C3(C)C)[C@]1(OC(C)=O)CO[C@@H]1C[C@@H]2O (relative stereo) [Paclitaxel, [2aR-[2a,4,4a,6,9(R*,S*),11,12,12a,12b]]-(benzoylamino)-hydroxybenzene propionic acid 6,12b-bis-(acetyloxy)-12-(benzoyloxy)-2a-3,4,4a, 5,6,9, 10, 11, 12, 12a, 12b-dodecahydro-4,11-dihydroxy-4a,8,13,13-tetramethyl-5-oxo-7,11-methano-1H-cyclodeca[3,4]benz[1,2-b]oxet-9-yl ester)]
Solubility (in dimethyl sulfoxide (DMSO), methanol, anhydrous ethanol): highly soluble
Solubility (in water): comparatively poorly soluble
